US20100298141A1, “SUBSTITUTED PYRIDINE N-OXIDE HERBICIDES” (E. I. DU PONT DE NEMOURS AND COMPANY, priority 2007, published 2010)

Assays:
corn [1] = assay: Test A pre-/postemergence greenhouse test; format: in vivo, Zea mays; conditions: for Plant response rating, Corn: 0 to 100 scale where 0 is no effect and 100 is complete control; for Corn plant response rating: 0 to 100 scale
Summary of the method: (§1)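 Each test compound, dissolved in a non-phytotoxic solvent mixture with surfactant, was sprayed directly onto seeded soil (loam/sand blend) and, at the same moment, onto seedlings carrying one to two leaves. Around ten greenhouse days later, plants were rated visually for injury relative to untreated controls.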

Italian ryegrass = assay: Test C pre-/postemergence test; format: in vivo, Lolium multiflorum
Summary of the method: (§2)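 Compounds in a non-phytotoxic solvent with surfactant applied preemergence to seeded pots and, at the same time, postemergence to plants 2–18 cm tall (1- to 4-leaf stage). Paddy tests: pots flooded to 3 cm, compound applied into the water, depth held throughout.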

eastern black nightshade = assay: Test C pre-/postemergence test; format: in vivo, Solanum ptycanthum
Summary of the method: as §2

morningglory [2] = assay: Test C pre-/postemergence test; format: in vivo, Ipomoea coccinea
Summary of the method: as §2

yellow nutsedge = assay: Test C pre-/postemergence test; format: in vivo, Cyperus esculentus
Summary of the method: as §2

bermudagrass = assay: Test C pre-/postemergence test; format: in vivo, Cynodon dactylon
Summary of the method: as §2

corn [3] = assay: Test C pre-/postemergence test; format: in vivo, Zea mays
Summary of the method: as §2

giant foxtail = assay: Test C pre-/postemergence test; format: in vivo, Setaria faberii
Summary of the method: as §2

morningglory [4] = assay: Test A pre-/postemergence greenhouse test; format: in vivo, Ipomoea spp.; conditions: for Plant response rating, Morningglory: 0 to 100 scale where 0 is no effect and 100 is complete control; for Morningglory plant response rating: 0 to 100 scale
Summary of the method: as §1

cocklebur = assay: Test C pre-/postemergence test; format: in vivo, Xanthium strumarium
Summary of the method: as §2

[5] = test system: common (oilseed) sunflower; assay: Test C pre-/postemergence test; format: in vivo, Helianthus annuus
Summary of the method: as §2

johnsongrass = assay: Test C pre-/postemergence test; format: in vivo, Sorghum halepense
Summary of the method: as §2

kochia = assay: Test C pre-/postemergence test; format: in vivo, Kochia scoparia
Summary of the method: as §2

wild oat = assay: Test C pre-/postemergence test; format: in vivo, Avena fatua
Summary of the method: as §2

redroot pigweed = assay: Test A pre-/postemergence greenhouse test; format: in vivo, Amaranthus retroflexus; conditions: for Plant response rating, Pigweed: 0 to 100 scale where 0 is no effect and 100 is complete control; for Pigweed plant response rating: 0 to 100 scale
Summary of the method: as §1

rice = assay: Test C flooded paddy test; format: in vivo, Oryza sativa; conditions: Flood, scale 0 to 100, 0 no effect, 100 complete control, 13 to 15 days
Summary of the method: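 Ratings were visual and made relative to untreated controls after 13 to 15 greenhouse days.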

wheat = assay: Test C pre-/postemergence test; format: in vivo, Triticum aestivum
Summary of the method: as §2

[6] = Postemergence, 500 g ai/ha, 0 is no effect, 100 is complete control
[7] = Preemergence, 125 g ai/ha, 0 no effect, 100 complete control
[8] = 62 g ai/ha, Preemergence, scale 0 to 100
[9] = 125 g ai/ha, preemergence, scale 0 (no effect) to 100 (complete control)
[10] = Postemergence, 125 g ai/ha, scale 0 to 100, 0 no effect, 100 complete control
[11] = Postemergence, 250 g ai/ha, scale 0 to 100, 0 no effect, 100 complete control
[12] = Preemergence, 31 g ai/ha, scale 0 to 100 (0 no effect, 100 complete control)
[13] = preemergence, 250 g ai/ha, scale 0 (no effect) to 100 (complete control)
[14] = Postemergence, 62 g ai/ha, scale 0 to 100, 0 no effect, 100 complete control

[O-][n+]1cc(Cl)ccc1[S+]([O-])Cc1c(C(F)(F)F)nn(CC(F)(F)F)c1Cl (centres unmarked) [Compound 47]
Plant response rating, Corn (corn [1]; Postemergence, 125 g ai/ha): 50 | Corn plant response rating (corn [1]; [6]): 70 | Corn plant response rating (corn [1]; [7]): 50 | Plant response rating, Corn (corn [1]; Preemergence, 500 g ai/ha): 90 | Ryegrass, Italian plant response rating (Italian ryegrass; [8]): 20 | Ryegrass, Italian plant response rating (Italian ryegrass; [9]): 50 | Plant response rating (0 to 100), Ryegrass, Italian (Italian ryegrass; Postemergence, 31 g ai/ha): 0 | Plant response rating (0 to 100), Ryegrass, Italian (Italian ryegrass; Postemergence, 62 g ai/ha): 0 | Plant response rating, Ryegrass, Italian (Italian ryegrass; [10]): 0 | Plant response rating, Ryegrass, Italian (Italian ryegrass; [11]): 40 | Plant response rating, Ryegrass, Italian (Italian ryegrass; [12]): 0 | Ryegrass, Italian plant response rating (Italian ryegrass; [13]): 85 | Nightshade plant response rating (eastern black nightshade; [8]): 85 | Nightshade plant response rating (eastern black nightshade; [9]): 90 | Plant response rating, Nightshade (eastern black nightshade; [12]): 0 | Nightshade plant response rating (eastern black nightshade; [13]): 100 | Morningglory plant response rating (morningglory [2]; [8]): 100 | Morningglory plant response rating (morningglory [2]; [9]): 100 | Plant response rating (0 to 100), Morningglory (morningglory [2]; Postemergence, 31 g ai/ha): 0 | Plant response rating, Morningglory (morningglory [2]; [14]): 0 | Plant response rating, Morningglory (morningglory [2]; [10]): 0 | Plant response rating, Morningglory (morningglory [2]; [11]): 60 | Plant response rating, Morningglory (morningglory [2]; [12]): 100 | Morningglory plant response rating (morningglory [2]; [13]): 100 | Nutsedge, Yellow plant response rating (yellow nutsedge; [8]): 30 | Nutsedge, Yellow plant response rating (yellow nutsedge; [9]): 40 | Plant response rating (0 to 100), Nutsedge, Yellow (yellow nutsedge; Postemergence, 31 g ai/ha): 0 | Plant response rating, Nutsedge, Yellow (yellow nutsedge; [14]): 0 | Plant response rating, Nutsedge, Yellow (yellow nutsedge; [10]): 0 | Plant response rating, Nutsedge, Yellow (yellow nutsedge; [11]): 60 | Plant response rating, Nutsedge, Yellow (yellow nutsedge; [12]): 0 | Nutsedge, Yellow plant response rating (yellow nutsedge; [13]): 100 | Bermudagrass plant response rating (bermudagrass; 62 g ai/ha, Preemergence, scale 0 to 100 (0 no effect, 100 complete control)): 100 | Bermudagrass plant response rating (bermudagrass; [9]): 100 | Plant response rating (0 to 100), Bermudagrass (bermudagrass; Postemergence, 31 g ai/ha): 0 | Plant response rating, Bermudagrass (bermudagrass; [14]): 0 | Plant response rating, Bermudagrass (bermudagrass; [10]): 0 | Plant response rating, Bermudagrass (bermudagrass; [11]): 0 | Plant response rating, Bermudagrass (bermudagrass; [12]): 80 | Bermudagrass plant response rating (bermudagrass; [13]): 100 | Corn plant response rating (corn [3]; [8]): 50 | Corn plant response rating (corn [3]; [9]): 98 | Plant response rating (0 to 100), Corn (corn [3]; Postemergence, 31 g ai/ha): 0 | Plant response rating, Corn (corn [3]; [14]): 0 | Plant response rating, Corn (corn [3]; [10]): 0 | Plant response rating, Corn (corn [3]; [11]): 60 | Plant response rating, Corn (corn [3]; [12]): 45 | Corn plant response rating (corn [3]; [13]): 98 | Foxtail, Giant plant response rating (giant foxtail; [8]): 100 | Foxtail, Giant plant response rating (giant foxtail; [9]): 100 | Plant response rating (0 to 100), Foxtail, Giant (giant foxtail; Postemergence, 31 g ai/ha): 0 | Plant response rating, Foxtail, Giant (giant foxtail; [14]): 0 | Plant response rating, Foxtail, Giant (giant foxtail; [10]): 0 | Plant response rating, Foxtail, Giant (giant foxtail; [11]): 50 | Plant response rating, Foxtail, Giant (giant foxtail; [12]): 85 | Foxtail, Giant plant response rating (giant foxtail; [13]): 100 | Plant response rating, Morningglory (morningglory [4]; Postemergence, 125 g ai/ha): 60 | Morningglory plant response rating (morningglory [4]; [6]): 90 | Morningglory plant response rating (morningglory [4]; [7]): 60 | Plant response rating, Morningglory (morningglory [4]; Preemergence, 500 g ai/ha): 80 | Cocklebur plant response rating (cocklebur; [8]): 0 | Cocklebur plant response rating (cocklebur; [9]): 0 | Plant response rating (0 to 100), Cocklebur (cocklebur; Postemergence, 31 g ai/ha): 0 | Plant response rating, Cocklebur (cocklebur; [14]): 0 | Plant response rating, Cocklebur (cocklebur; [10]): 0 | Plant response rating, Cocklebur (cocklebur; [11]): 0 | Plant response rating, Cocklebur (cocklebur; [12]): 0 | Cocklebur plant response rating (cocklebur; [13]): 0 | Sunflower plant response rating [5, 8]: 0 | Sunflower plant response rating [5, 9]: 0 | Plant response rating, Sunflower [5, 12]: 0 | Sunflower plant response rating [5, 13]: 0 | Johnsongrass plant response rating (johnsongrass; [8]): 90 | Johnsongrass plant response rating (johnsongrass; [9]): 100 | Plant response rating (0 to 100), Johnsongrass (johnsongrass; Postemergence, 31 g ai/ha): 0 | Plant response rating, Johnsongrass (johnsongrass; [14]): 0 | Plant response rating, Johnsongrass (johnsongrass; [10]): 0 | Plant response rating, Johnsongrass (johnsongrass; [11]): 85 | Plant response rating, Johnsongrass (johnsongrass; [12]): 85 | Johnsongrass plant response rating (johnsongrass; [13]): 100 | Kochia plant response rating (kochia; [8]): 0 | Kochia plant response rating (kochia; [9]): 100 | Plant response rating (0 to 100), Kochia (kochia; Postemergence, 31 g ai/ha): 0 | Plant response rating, Kochia (kochia; [14]): 0 | Plant response rating, Kochia (kochia; [10]): 0 | Plant response rating, Kochia (kochia; [11]): 0 | Plant response rating, Kochia (kochia; [12]): 0 | Kochia plant response rating (kochia; [13]): 100 | Oat, Wild plant response rating (wild oat; [8]): 10 | Oat, Wild plant response rating (wild oat; [9]): 90 | Plant response rating (0 to 100), Oat, Wild (wild oat; Postemergence, 31 g ai/ha): 0 | Plant response rating, Oat, Wild (wild oat; [14]): 0 | Plant response rating, Oat, Wild (wild oat; [10]): 10 | Plant response rating, Oat, Wild (wild oat; [11]): 40 | Plant response rating, Oat, Wild (wild oat; [12]): 10 | Oat, Wild plant response rating (wild oat; [13]): 95 | Plant response rating, Pigweed (redroot pigweed; Postemergence, 125 g ai/ha): 60 | Pigweed plant response rating (redroot pigweed; [6]): 80 | Pigweed plant response rating (redroot pigweed; [7]): 100 | Plant response rating, Pigweed (redroot pigweed; Preemergence, 500 g ai/ha): 100 | Plant response rating, Rice (rice; 62 g ai/ha): 55 | Plant response rating, Rice (rice; 250 g ai/ha): 65 | Wheat plant response rating (wheat; [8]): 10 | Wheat plant response rating (wheat; [9]): 60 | Plant response rating (0 to 100), Wheat (wheat; Postemergence, 31 g ai/ha): 0 | Plant response rating (0 to 100), Wheat (wheat; Postemergence, 62 g ai/ha): 0 | Plant response rating, Wheat (wheat; [10]): 10 | Plant response rating, Wheat (wheat; [11]): 50 | Plant response rating, Wheat (wheat; [12]): 0 | Wheat plant response rating (wheat; [13]): 85
